Assay [1] addresses T1, P2X7 receptor (Rattus norvegicus, UniProt Q64663).
T1 construct: Alveolar macrophages (AM) were recovered from normal rats by bronchoalveolar lavage; endogenous in cells; host or cells: primary alveolar macrophages from male Wistar rats (bronchoalveolar lavage)
T1 sequence (Q64663 1-595): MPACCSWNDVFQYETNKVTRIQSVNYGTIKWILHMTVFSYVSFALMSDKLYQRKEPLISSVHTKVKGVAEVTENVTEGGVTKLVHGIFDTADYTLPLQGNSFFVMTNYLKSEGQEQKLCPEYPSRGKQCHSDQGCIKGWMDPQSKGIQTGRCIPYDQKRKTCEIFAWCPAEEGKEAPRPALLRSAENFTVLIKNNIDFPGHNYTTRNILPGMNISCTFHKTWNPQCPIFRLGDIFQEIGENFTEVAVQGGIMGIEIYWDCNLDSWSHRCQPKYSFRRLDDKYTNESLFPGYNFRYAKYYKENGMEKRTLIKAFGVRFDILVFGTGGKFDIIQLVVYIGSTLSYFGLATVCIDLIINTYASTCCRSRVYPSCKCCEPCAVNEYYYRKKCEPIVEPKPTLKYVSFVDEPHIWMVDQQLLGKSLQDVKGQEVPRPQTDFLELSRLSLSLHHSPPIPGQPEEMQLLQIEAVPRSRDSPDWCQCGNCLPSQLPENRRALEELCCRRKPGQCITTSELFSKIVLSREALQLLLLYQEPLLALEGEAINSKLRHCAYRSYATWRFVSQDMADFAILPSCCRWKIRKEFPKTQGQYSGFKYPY
Kind of assay: ATP-induced membrane permeabilization and pore formation (ethidium bromide uptake) in alveolar macrophages. The format is cell-based. Conditions: for inhibition of ATP-induced pore formation (ethidium bromide uptake) / ATP-mediated permeabilization to ethidium bromide: ATP 5 mM; for inhibition of ATP-induced pore formation (ethidium bromide uptake): 5 min, compound 10^−9M; for inhibition of ATP-induced pore formation (ethidium bromide uptake) / inhibition of BzATP-induced pore formation: rat alveolar macrophages, FIG. 1A; for inhibition of BzATP-induced pore formation / BzATP-mediated permeabilization to ethidium bromide: BzATP 0.5 mM; for ATP-mediated permeabilization to ethidium bromide / BzATP-mediated permeabilization to ethidium bromide: pre-treatment with oATP 0.1 mM 2 h or BBG 5×10^−9M 5 min. As for the experimental part: Alveolar macrophages (AM) were recovered from normal rats by bronchoalveolar lavage (BAL) as described previously (Lemaire (1991) Am. J. Pathol. 138:487-495). The lungs were lavaged with 7 ml-aliquots of sterile phosphate buffered saline (pH 7.4; Wisent, St. Bruno, QC), and BAL cells were obtained by centrifugation at 200×g at 4° C. for 5 minutes. The cells were resuspended in RPMI 1640 medium (Wisent, St-Bruno, QC) supplemented with 0.5% dialysed fetal bovine serum (Wisent. St-Bruno, QC), 0.005% gentamycin (Schering Canada Inc. Pointe Claire. QC) and 0.8% HEPES (Sigma Chemical Co., St-Louis, MO) which will henceforth be referred to as complete culture medium (CM).
Freshly isolated AM (1×10^5) were incubated in 200 μl complete medium in 96 wells tissue culture plates for 24 h. Following centrifugation, medium was replaced with saline solution containing 125 mM NaCl, 5 mM KCL, 1 mM MgSO4, 1 mM Na2HPO4, 5.5 mM glucose, 5 mM NaHCO3, 1 mM CaCl2 and 20 mM Hepes, pH 7.6. Ethidium bromide was added to a final concentration of 20 μM and AM were stimulated with ATP (5 mM, Sigma), 3′-O-(4-benzoylbenzoyl ATP (BzATP) (0.5 mM, Molecular Probes) or uridine 5′-triphosphate (UTP) (Sigma), at 37° C. for 5 minutes. In some experiments, cells were pre-treated with oxidized ATP (oATP, 0.1 mM, Sigma) for 2 h or Brilliant Blue G (BBG, 5×10^−9M, Sigma) for 5 minutes, or HN compounds for 5 minutes before ATP stimulation. After ATP stimulation, the plate was centrifuged (200×g, 1 minute), culture supernatants were replaced with fresh buffer and the fluorescence was analyzed using a Zeiss Axiovert S1100 TV inverted microscope equipped with a rhodamine filter and a 32× objective. Images were captured and analysed with the Northern Eclipse image analysis software. Data are expressed as percentage of cells that become permeabilized to ethidium bromide.

Assay [2] addresses T1, P2X7 receptor. Kind of assay: ATP-induced apoptosis, cell death ELISA of cytoplasmic oligonucleosomal DNA. The format is cell-based. Conditions: ATP 5 mM 30 min, read after 24 h; compound 10^−9M. On the procedure:
This assay using mouse monoclonal antibodies directed against DNA and histones respectively, allows the quantitative determination of mono- and oligonucleosomes in the cytoplasmic fraction of cell lysates prepared from macrophages (Li et al. (1997) Toxicol. Appl. Pharmacol. 145:331-339). Alveolar macrophages (1×10^5) were incubated in 200 μl complete medium in 96 wells tissue culture plates with ATP (5 mM) in the presence and absence of HN compounds for 30 minutes and media was replaced with fresh culture media. After 24 h, the plate was centrifuged, the culture supernatants removed and macrophages were lysed in lysis buffer for 30 min on ice and centrifuged at 14,000 rpm for 15 min at 4° C. Cytoplasmic oligonucleosomal DNA was measured in cell supernatants by ELISA.
For orientation: An ELISA detects its analyte on a solid surface through an enzyme-linked reagent.

Assay [3] addresses T1, P2X7 receptor. Kind of assay: ATP-induced extracellular release of IL-1.beta and IL-1.alpha from macrophages in vitro (ELISA). Format: cell-based. On the procedure: Alveolar macrophages (1×10^6 cells/ml) were incubated in complete medium in 96 wells tissue culture plates overnight at 37° C. in 5% CO2. The medium was changed for fresh medium and cells were incubated with Lipopolysaccharide (LPS. 1 μg/ml) (Sigma) for 3 h followed by ATP (5 mM) or 3′-0-(4-benzoylbenzoyl ATP (BZATP) (0.5 mM. Molecular Robes) for 1 h in the presence and absence of HN compounds (10^−9M and 10^−8M) or Brilliant Blue G (BBG, 5×10^−9 M, Sigma). In some experiments, cells were pre-treated with oxidized ATP (oATP, 100 μM, Sigma) for 2 h before LPS and ATP or BzATP stimulation. In other experiments, cells were stimulated with LPS (1 μg/ml) for 3 h and subsequently with Nigericin (20 μM) for 30 min in the presence and absence of HN compounds (10^−9, 10^−8M). Controls were incubated with LPS only. After incubation, cell culture media were collected, centrifuged in a microfuge (Eppendorf) and the cell-free supernatants were collected and stored at −80° C. for cytokine measurement. Levels of immunoreactive IL-1.beta and IL-1.alpha were assayed using ELISA (R&D Systems, Minneapolis, Minn. and Biosource (Medicorp), Camarillo, Calif. respectively) performed according to the manufacturer's protocol.

The target in assay [4] is T2, P2X7 receptor (Mus musculus, UniProt Q9Z1M0).
T2 construct: from tissue; host or cells: living mice; peritoneal cavity (lavage fluid analysed)
T2 sequence (Q9Z1M0 1-595): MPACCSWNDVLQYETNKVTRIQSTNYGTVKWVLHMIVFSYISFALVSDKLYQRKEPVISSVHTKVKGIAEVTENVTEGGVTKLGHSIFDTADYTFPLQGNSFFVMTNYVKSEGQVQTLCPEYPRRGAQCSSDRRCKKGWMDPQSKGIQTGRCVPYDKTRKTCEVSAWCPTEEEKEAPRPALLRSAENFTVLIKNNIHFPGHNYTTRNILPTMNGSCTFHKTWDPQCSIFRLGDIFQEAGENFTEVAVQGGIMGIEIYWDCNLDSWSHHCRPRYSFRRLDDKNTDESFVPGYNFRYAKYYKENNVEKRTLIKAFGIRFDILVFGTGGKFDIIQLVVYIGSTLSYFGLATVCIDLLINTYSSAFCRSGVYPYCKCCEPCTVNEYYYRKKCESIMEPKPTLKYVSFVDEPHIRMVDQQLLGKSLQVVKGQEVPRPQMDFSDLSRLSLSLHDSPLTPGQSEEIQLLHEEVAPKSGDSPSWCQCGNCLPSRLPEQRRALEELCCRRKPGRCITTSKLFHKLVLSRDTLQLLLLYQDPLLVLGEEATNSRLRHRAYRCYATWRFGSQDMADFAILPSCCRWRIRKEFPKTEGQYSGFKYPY
Kind of assay: ATP-induced extracellular release of IL-1.beta, IL-1.alpha and IL-6 in vivo (peritoneal lavage of LPS-primed mice). The settings on record: 0.1 mg and 0.3 mg i.p. 15 min before ATP, FIG. 6B. As for the experimental part:
Groups of mice were injected intraperitoneally (i.p.) with 50 μg of LPS. Two hours after this LPS injection, mice were injected i.p. with either PBS or ATP (5 mM, adjusted to pH 7), or with HN compounds (0.1 mg and 0.3 mg) 15 minutes before ATP injection. Mice were sacrificed 30 minutes (IL-1.beta and IL-1.alpha) or 120 minutes (IL-6) after the ATP or PBS injection and peritoneal cavities were lavaged each with 3 ml PBS. Samples of peritoneal lavages were centrifuged, cell-free supernatants were collected and tested for the presence of IL-1.beta, IL-1.alpha and IL-6 using ELISA (R&D Systems, Minneapolis, Minn., and Biosource, Camarillo, Calif., respectively).

On to `N=C(N)NCCC[C@H](C(N)=O)n1c(Cc2ccc(O)cc2)nc2cc(C(=O)O)ccc21` [C-15, N-5-guanidinopentanamide-(2R)-yl 2-(p-hydroxylbenzyl)5-carboxybenzimidazole], for which, at P2X7 receptor [1] (10^−12 M to 10^−6 M, dose-dependent manner, FIG. 1B), the “inhibition of ATP-induced pore formation, concentration-response” value is reported as “inhibited”. Moreover, on P2X7 receptor [1], the “inhibition of ATP-induced pore formation (ethidium bromide uptake)” value (“inhibition … (ethidium bromide uptake)” for short) is reported as “inhibited significantly” and the “inhibition of BzATP-induced pore formation” value is listed as “inhibit”. For the same compound, at P2X7 receptor [2], the “cytoplasmic oligonucleosomal DNA in response to ATP” value is recorded as “inhibited”. Further, at P2X7 receptor [3] (LPS 3 h then ATP 5 mM 1 h, compound 10^−9 M, FIG. 3A), the “inhibition of extracellular IL-1.beta release, ATP stimulation” value was “significant inhibition”. The “inhibition of extracellular IL-1.beta release, BzATP stimulation” value on P2X7 receptor [3] (LPS 3 h then BzATP 0.5 mM 1 h, compound 10^−9 M, FIG. 3A) was “significant inhibition”. For the same compound, the IC50 at P2X7 receptor [3] (LPS-primed rat alveolar macrophages, ATP 5 mM, FIG. 3B, read-out: half-maximal response, inhibition of ATP-induced IL-1.beta release) is roughly 100 pM. Further, on P2X7 receptor [3] (inhibition already seen at 10^−12M, FIG. 3B), the “inhibition of ATP-induced IL-1.beta release, concentration-response” value is given as “dose-dependent”. Also, on P2X7 receptor [4], the “IL-1.beta in peritoneal lavage in response to ATP, various HN compounds” value (“IL-1.beta in peritoneal lavage” for short) is on record as “reduced levels”.
As for “Cyclic (-Gly-Gln-Tyr-D-Arg-) (GQYR; HELM PEPTIDE1{G.Q.Y.[dR]}$PEPTIDE1,PEPTIDE1,1:R1-4:R2$$$V2.0; SMILES N=C(N)NCCC[C@H]1NC(=O)[C@H](Cc2ccc(O)cc2)NC(=O)[C@H](CCC(N)=O)NC(=O)CNC1=O) [C-7]”, the “inhibition … (ethidium bromide uptake)” value with P2X7 receptor [1] is listed as “inhibited significantly”.
For the compound `N=C(N)NCCC[C@@H](Nc1ccc(C(=O)c2ccc(Cl)cc2)cc1NC(=O)Cc1ccc(O)cc1)C(N)=O` [C-13, N-5-guanidinopentanamide-(2R)-yl-2-N-(p-hydroxyphenylacetyl)-4-(p-chlorobenzoyl)-phenylenediamine], the “IL-1.beta in peritoneal lavage” value at P2X7 receptor [4] is given as “reduced levels”.
“H-Gly-Gln-Gly-Arg-Thr-Leu-Tyr-Gly-Phe-COOH (H-GQGRTLYGF-OH) [C-3]”: in the assay with P2X7 receptor [2], the “cytoplasmic oligonucleosomal DNA in response to ATP” value is on record as “inhibited”.
As for `CCOc1ccc(Nc2ccc(/C(=C3C=C/C(=[N+](/CC)Cc4cccc(S(=O)(=O)[O-])c4)C=C/3C)c3ccc(N(CC)Cc4cccc(S(=O)(=O)[O-])c4)cc3C)cc2)cc1.[Na+]` [Brilliant Blue G, reference compound], on P2X7 receptor [1], the “ATP-mediated permeabilization to ethidium bromide” value was “blocked” and the “BzATP-mediated permeabilization to ethidium bromide” value is given as “blocked”. Besides, at P2X7 receptor [3] (LPS-primed macrophages, BzATP 0.5 mM, BBG 5×10^−9M, FIG. 3A), the “BzATP-induced IL-1.beta release” value is listed as “significantly reduced”.
In the case of `N=C(N)NCCC[C@@H](Nc1ccccc1NC(=O)Cc1ccc(O)cc1)C(N)=O` [C-12, N-5-guanidinopentanamide-(2R)-yl-2-N-(p-hydroxphenylacetyl) phenylenediamine], the “inhibition … (ethidium bromide uptake)” value at P2X7 receptor [1] was “inhibited significantly”. At P2X7 receptor [4], the “IL-1.beta in peritoneal lavage” value is recorded as “reduced levels”.
Take “Cyclic (-Gly-D-Gln-Tyr-D-Arg-) (GQYR; HELM PEPTIDE1{G.[dQ].Y.[dR]}$PEPTIDE1,PEPTIDE1,1:R1-4:R2$$$V2.0; SMILES N=C(N)NCCC[C@H]1NC(=O)[C@H](Cc2ccc(O)cc2)NC(=O)[C@@H](CCC(N)=O)NC(=O)CNC1=O) [C-8]”: the “inhibition … (ethidium bromide uptake)” value with P2X7 receptor [1] is “inhibited significantly”.
Turning to `Nc1ncnc2c1ncn2[C@@H](C=O)O[C@@H](C=O)COP(=O)(O)OP(=O)(O)OP(=O)(O)O` [oATP, oxidized ATP, reference compound], at P2X7 receptor [1], the “ATP-mediated permeabilization to ethidium bromide” value is reported as “blocked” and the “BzATP-mediated permeabilization to ethidium bromide” value is listed as “blocked”. Also, the “ATP-induced IL-1.beta release” value at P2X7 receptor [3] (LPS-primed macrophages, ATP 5 mM, oATP 100 μM pre-treatment 2 h, FIG. 3A) was “significantly reduced”.
“Cyclic (-Gly-(p-chloro)Phe-Tyr-D-Arg-) (GFYR; HELM PEPTIDE1{G.[O=C([C@H](Cc1ccc(Cl)cc1)N[*:1])[*:2]].Y.[dR]}$PEPTIDE1,PEPTIDE1,1:R1-4:R2$$$V2.0; SMILES N=C(N)NCCC[C@H]1NC(=O)[C@H](Cc2ccc(O)cc2)NC(=O)[C@H](Cc2ccc(Cl)cc2)NC(=O)CNC1=O) [C-10]”: in the assay with P2X7 receptor [1], the “inhibition … (ethidium bromide uptake)” value is reported as “inhibited significantly” and the “inhibition of BzATP-induced pore formation” value is reported as “inhibit”. Further, the “IL-1.beta in peritoneal lavage” value in the assay with P2X7 receptor [4] was “reduced levels”.
Consider “H-Val-Val-Tyr-Ala-Leu-Lys-Arg-Gln-Gly-[S-(3nitro-2-pyridine sulfenyl)]Cys-Thr-Leu-Tyr-Gly-Phe- [C-5]”, for which the “IL-1.beta in peritoneal lavage” value on P2X7 receptor [4] was “reduced levels”.

The values are drawn from patent publication US20090124555A1, “USE OF HISTOGRANIN AND HISTOGRANIN-LIKE COMPOUNDS AS INHIBITORS OF P2X7 RECEPTOR FUNCTION AND AS ANTI-ARTHRITIC AGENTS” (priority 2005, published 2009).
